Source: patent publication US20100272736A1, “COMBINATION ANTIBIOTIC AND ANTIBODY THERAPY FOR THE TREATMENT OF PSEUDOMONAS AERUGINOSA INFECTION” (priority 2009, published 2010)

Columns and labels:
P. aeruginosa PA103 [1] = experiment: Acute murine airway infection model: survival and body temperature (Mab166 iv, antibiotic ip); type: in vivo, mice; details: for survival rate over a 7 day period: antibiotic alone ip Q8H (ciprofloxacin 100 mg/kg, tobramycin 3.3 mg/kg, ceftazidime 1000 mg/kg); for survival (piperacillin experiment): piperacillin/tazobactam 1000 mg/kg ip Q8H, Mab166 300 μg iv, FIG. 7
Description: Bacterial administration and lung injury measurement in mice. Following anesthesia with avertin (250 mg kg^−1; ip), mice were inoculated with a volume of fifty μl of bacterial working stock (1.5×10^6 CFU), which was instilled into the left lung through the trachea using a 27G gavages needle. Mice were allowed to recover for 15 minutes prior to being returned to their cages. […] Rectal temperature was recorded hourly for the initial 12 hours post bacterial instillation followed by daily measurements for 7 days. Survival time was recorded for each mouse.
Antibiotics and PcrV antibody administration. […] All antibiotics were administrated intraperitoneally 1 hour after P. aeruginosa instillation. Four doses of each antibiotic were tested in mice to determine the dose needed to produce sub-optimal survival rates (40-60%) in mice infected with 1.5×10^6 PA103 CFU, which is a 3× lethal amount of bacteria.
Statistics. Kaplan-Meier plots were generated for survival analysis and ANOVA was used to compare lung injury score, bacterial CFU's and MPO activity in various treatment groups at specific time points; P 0.05 was considered significant.
(§1) The acutely infectious strain P. aeruginosa PA103 was used for this study.
Anti-PcrV antibody was intravenously injected one hour before P. aeruginosa instillation. Mice were then anesthetized with avertin (250 mg/kg), prior to instillation of 1.5×10^6 CFU PA103 into the trachea. Intraperitoneal piperacillin (1000 mg/kg, Q8H) injection commenced one hour after P. aeruginosa instillation and repeated until mice expired. Piperacillin was administered in combination with tazobactam (a pencillinase inhibitor), which is the standard practice for administration. In this example, “piperacillin” refers to piperacillin in combination with tazobactam.

PA103 = PA103 antibiotic sensitivity (MicroScan Neg Combo plates, CLSI guidelines); type: cell-based, P. aeruginosa; details: conventional antibiotic resistance testing, CLSI interpretation
Text: PA103 antibiotic sensitivity Dade Behring MicroScan Neg Combo plates were used to determine the antibiotic sensitivity of PA103 by conventional antibiotic sensitivity testing according to the manufacturers instructions.
as §1

P. aeruginosa PA103 [2] = experiment: Bacterial enumeration (CFU) in lungs, blood and spleen; type: in vivo, mice
Description: Bacterial enumeration. Lungs were removed aseptically from the thoracic cavity, placed in 1 ml of sterile PBS and homogenized. Spleens were aseptically removed and homogenized in 1 ml of PBS and blood was drawn from right ventricle puncture. All samples were serially diluted in sterile PBS and plated on P. aeruginosa isolation agar prior to overnight incubation at 37° C. Plates with cell counts between 30 and 300 were enumerated and mean CFU ml^−1 of triplicate counts was calculated for each sample.
These samples were analyzed for bacterial CFU's as described in materials and methods.

Row | SMILES | survival rate over a 7 day period (P. aeruginosa PA103 [1]) | antibiotic susceptibility of PA103 (PA103) | P. aeruginosa CFU's in the blood (P. aeruginosa PA103 [2]; 8 and 24 hours post infection) | total CFU's in the lungs (P. aeruginosa PA103 [2]; 8 and 24 hours post infection, compared to control mice) | bacterial CFU's in the spleen (P. aeruginosa PA103 [2]; 24 hours vs 8 hours post infection) | survival (piperacillin experiment) (P. aeruginosa PA103 [1]) | survival (piperacillin experiment) (P. aeruginosa PA103 [1]; listed as Piperacillin)
1 | CC(C)(O/N=C(\C(=O)N[C@@H]1C(=O)N2C(C(=O)[O-])=C(C[n+]3ccccc3)CS[C@H]12)c1csc(N)n1)C(=O)O [ceftazidime] | 40% | susceptible |  |  |  |  | 
2 | NC[C@H]1O[C@H](O[C@H]2[C@H](O)[C@@H](O[C@H]3O[C@H](CO)[C@@H](O)[C@H](N)[C@H]3O)[C@H](N)C[C@@H]2N)[C@H](N)C[C@@H]1O [tobramycin] | 60% | susceptible | significant (P=0.01, P=0.0046 respectively) increases | significantly lower | increased significantly |  | 
3 | CCN1CCN(C(=O)N[C@@H](C(=O)N[C@@H]2C(=O)N3[C@@H]2SC(C)(C)[C@@H]3C(=O)O)c2ccccc2)C(=O)C1=O [piperacillin] |  |  |  |  |  | increased survival minimally | slight increase in animal survival
